Publication PMC4368888, “Preclinical to Clinical Translation of CNS Transporter Occupancy of TD-9855, a Novel Norepinephrine and Serotonin Reuptake Inhibitor” (International Journal of Neuropsychopharmacology, 2015)
“And” between values parts separate entries of the source, which are not always exact repeats. Equal entries are not always repeated.

Legend:
[1] = target: T1, NET (Homo sapiens, UniProt P23975); experiment: Human PET NET occupancy with [11C]-MRB; type: in vivo; set-up: from tissue; host or cells: brain of healthy male volunteers, in vivo PET
T1 sequence (P23975 whole entry): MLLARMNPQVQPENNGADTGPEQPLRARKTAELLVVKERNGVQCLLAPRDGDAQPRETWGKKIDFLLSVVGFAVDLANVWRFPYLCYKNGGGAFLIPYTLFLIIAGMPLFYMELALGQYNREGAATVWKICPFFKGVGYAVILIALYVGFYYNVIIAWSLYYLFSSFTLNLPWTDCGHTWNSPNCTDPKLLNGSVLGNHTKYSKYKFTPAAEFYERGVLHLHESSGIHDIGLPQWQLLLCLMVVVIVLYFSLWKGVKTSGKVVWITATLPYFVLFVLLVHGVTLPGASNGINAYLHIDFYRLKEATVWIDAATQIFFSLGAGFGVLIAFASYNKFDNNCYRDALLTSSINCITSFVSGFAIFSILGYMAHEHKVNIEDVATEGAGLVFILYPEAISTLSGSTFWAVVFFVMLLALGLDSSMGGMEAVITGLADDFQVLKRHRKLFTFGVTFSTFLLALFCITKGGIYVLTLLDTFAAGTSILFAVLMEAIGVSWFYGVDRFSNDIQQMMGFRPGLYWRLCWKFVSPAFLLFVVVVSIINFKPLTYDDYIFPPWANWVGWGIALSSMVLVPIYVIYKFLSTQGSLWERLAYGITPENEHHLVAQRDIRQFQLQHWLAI
Protocol: This was a Phase 1, open-label, single-dose study in healthy male volunteers to evaluate NET and SERT occupancy in the human brain after oral administration of TD-9855 using PET.
The study was conducted at the Yale PET Center in accordance with the principles of the International Conference on Harmonisation’s Technical Requirements for Registration of Pharmaceuticals for Human Use Guideline for Good Clinical Practice. The protocol was approved by the Yale University Human Investigation Committee and the Yale–New Haven Hospital Radiation Safety Committee. SERT and NET occupancy were determined using the selective radiotracers [^11C]-DASB ([Meyer et al., 2004]; [Takano et al., 2006]; [Abanades et al., 2011]; [Nogami et al., 2013]) and [^11C]-MRB. Selection of the radiotracers and the dose of TD-9855 were flexible to minimize the number of PET scans.
Eligible subjects were enrolled and received either [^11C]-MRB and/or [^11C]-DASB. Each subject underwent up to 5 PET scans over a period of up to 8 days. Multiple dose levels of TD-9855 (up to 20mg) were explored. All randomized subjects received the NET tracer (single-tracer evaluation) and some subjects (n = 3) received both the NET and SERT tracers sequentially (dual-tracer evaluation) in the baseline and post-dose period. […] In the dual-tracer evaluation, subjects completed sequential [^11C]-DASB and [^11C]-MRB baseline scans with each tracer, sequential post-dose scans with each tracer at 7–10hr post-dose, and one follow-up scan with [^11C]-MRB on or between Days 3 and 7.
The injected dose of both tracers was typically 14–15 mCi, with mass doses less than 10 µg in all cases. PET images were acquired using the High Resolution Research Tomograph (HRRT; Siemens/CTI) with a reconstructed image resolution of approximately 3mm. Following a transmission scan, [^11C]-MRB or [^11C]-DASB was injected intravenously as a 1min bolus by an infusion pump. List-mode data were acquired for 120min. Head motion correction was performed using an optical tracking tool (Vicra, NDI Systems) and a rigid tool attached to a swim cap.
The occipital cortex was selected as the reference region for [^11C]-MRB due to the low density of NET measured in vitro ([Schou et al., 2005]) and the absence of specific binding in a previous study ([Hannestad et al., 2010]). The regions of interest (ROIs) selected to assess [^11C]-MRB specific binding included one cortical region and the paracentral lobule, thalamus, hypothalamus, locus ceruleus, nucleus rubra, and raphe nucleus. The thalamus and cortical ROIs were delineated using the Automated Anatomical Labeling (AAL) template ([Tzourio-Mazoyer et al., 2002]). The hypothalamus, locus ceruleus, nucleus rubra, and raphe nucleus ROIs were drawn on the template MR image, based on the AAL template ([Hannestad et al., 2010]).
For both studies, binding potentials (BP ND) were estimated using a method based on a reference region input curve. For [^11C]-MRB regional BP ND were computed using the multilinear reference tissue model 2 (MRTM2; [Ichise et al., 2003]). The suitability of MRTM2 to estimate [^11C]-MRB BP ND values was evaluated in a previous study ([Hannestad et al., 2010]), in which it was shown that MRTM2 BP ND estimates are highly correlated with BP ND estimated with arterial blood sampling and the multilinear analysis 1 (y = 0.909 x + 0.078, r^2 = 0.821, where x represents the MA1 BP ND values and y represents the MRTM2 BP ND values). BP ND values and their associated standard errors ( SEBPND ) for each ROI were then estimated by performing fits of the regional TACs. Data were fitted starting at time t* = 20min. For [^11C]-DASB, regional BP ND values were computed using simplified reference tissue model 2 (SRTM2; [Wu and Carson, 2002]). SRTM2 is similar to MRTM2, except that it uses the full data set, while MRTM2 uses the period of time t > t*. When applied to single-voxel TACs, these fits provided the BP ND images. […]

[2] = target: T1, NET; experiment: [3H]-nisoxetine equilibrium binding, HEK293-hNET membranes; set-up: expressed in transfected cells; host or cells: HEK293 (HEK293-hNET), stably transfected; details: mean (95% CI), 3 to 9 experiments, read-out: Transporter Binding: pKi NET (converted)
Source text: The in vitro pharmacology of TD-9855 (4-[2-(2, 4, 6-trifluorophenoxymethyl)phenyl]piperidine; Figure 1) at human recombinant and rat native monoamine transporters was characterized as described previously ([Tsuruda et al., 2010]; [Shen et al., 2013]). Radioligands were sourced commercially (Perkin Elmer Life Sciences or GE Healthcare Life Sciences). Briefly, membranes prepared from HEK293 (Human Embryonic Kidney 293) cells stably-transfected with human recombinant SERT (HEK293-hSERT), NET (HEK293-hNET), or DAT ([…]) were incubated for 1hr at 22°C in the absence, or presence, of TD-9855 and [^3H]-citalopram (1.0nM) for SERT, [^3H]-nisoxetine (2.0nM) for NET, and [^3H]-WIN35428 (3.0nM) for DAT in 50mM Tris-HCl, 120mM NaCl, 5mM KCl, 0.025% BSA, 100 μM ascorbic acid, pH 7.4. Rat cortical membrane preparations were incubated with [^3H]-citalopram (2.0nM) for SERT or [^3H]-nisoxetine (4.0nM) for NET for 1hr at 22°C. […] Binding and uptake assays were terminated by rapid filtration and radioactivity, determined by liquid scintillation spectroscopy.

[3] = 4 mg single oral dose, individual subjects, rApp ± SE
[4] = 10 mg single oral dose, individual subject, rApp ± SE
[5] = 20 mg single oral dose, individual subject, rApp ± SE
[6] = 20 mg single oral dose, individual subjects, rApp ± SE

Structure (SMILES): Fc1cc(F)c(OCc2ccccc2C2CCNCC2)c(F)c1 [TD-9855, 4-[2-(2,4,6-trifluorophenoxymethyl)phenyl]piperidine]
- Apparent NET Occupancy Day 7 ([1]; 4 mg single oral dose, individual subject, rApp ± SE): 3.2±7.8%
- Apparent NET Occupancy Day 1 [1, 3]: 57.9±4.7% and 58.7±5.5% and 42.2±6.4%
- Apparent NET Occupancy Day 3 [1, 3]: 57.3±3.8% and 47.2±6.0% and 29.6±7.1%
- Apparent NET Occupancy Day 1 [1, 4]: 110.3±7.4%
- Apparent NET Occupancy Day 3 [1, 4]: 92.0±10.8%
- Apparent NET Occupancy Day 6 [1, 5]: 62.9±5.0%
- Apparent NET Occupancy Day 7 [1, 5]: 2.6±11.6%
- Apparent NET Occupancy Day 1 [1, 6]: 120.3±6.2% and 98.4±4.7% and 119.1±8.3% and 121.2±4.5%
- Apparent NET Occupancy Day 3 [1, 6]: 96.2±10.2% and 124.3±4.9%
- EC50 ([1]; human brain PET, single oral 4-20mg, fit ± standard error, read-out: plasma EC50 for NET occupancy (converted)): 3.77 nM
- Ki [2]: 1.58 nM
